Data published in PMC6443933, “Antagonizing Retinoic Acid-Related-Orphan Receptor Gamma Activity Blocks the T Helper 17/Interleukin-17 Pathway Leading to Attenuated Pro-inflammatory Human Keratinocyte and Skin Responses” (Frontiers in Immunology, 2019).

Tested on: skin-resident immunocompetent cells in human skin biopsies
Test: Ex vivo full-thickness human skin biopsy culture with Th17-inducing cocktail
Experimental: Full-thickness skin punch biopsies (8 mm diameter) were taken from surgical discards. Briefly, subcutaneous fat was removed from the skin ranging in size between 150 and 200 cm^2 and 8 mm punches were obtained. Samples were incubated in IMDM medium supplemented with Glutamax, 10% FCS, 1% non-essential amino acids, 1 mM Sodium pyruvate, Penicillin/Streptomycin and Amphotericin B (2.5 μg/ml). Incubations were done in the presence of various concentrations of Cpd A or DMSO vehicle control together with a Th17-inducing cocktail consisting of IL-6 (20 ng/ml), TGF-β1 (5 ng/ml), IL-1β (10 ng/ml), IL-23 (10 ng/ml), anti-IL-4/IFNγ (5 μg/ml), and anti-CD3/CD28 antibodies (1 μg/ml). On day 4, supernatants were harvested and analyzed for IL-17 cytokine expression, whereas skin punch biopsies were snap frozen, stored at −80°C and further processed for qRT-PCR analysis.
Total RNA from human Th17 cells (6 × 10^5 cells), RORγt-RORE HUT78 cells (4 × 10^5 cells) and HaCaT cells (6 × 10^4 cells) was extracted using RNeasy kit including a DNAse I digestion step according to the manufacturer‘s protocol (Qiagen). […] Quantitative RT-PCR analysis was performed using a TaqManViiA7 (Applied Biosystems). […]

Cc1ccc(C(=O)Nc2cn3ccnc3c(CN3CCN(c4noc(C(C)(C)C)n4)[C@@H](C)C3)c2C)cn1 [Cpd A, (S)-N-(8-((4-(5-(tert-butyl)-1,2,4-oxadiazol-3-yl)-3-methylpiperazin-1-yl)methyl)-7-methylimidazo[1,2-a]pyridin-6-yl)-6-methylnicotinamide]
h-BD2 (DEFB4A) gene expression in skin punches: significantly down-regulated | IL-17A secretion by skin-resident immunocompetent cells (ex vivo skin punches, various concentrations): concentration-dependent inhibition
